Source: PubChem BioAssay AID330 (DTP/NCI, 2004)
Where “and” joins values, the source holds several entries; their conditions need not be identical. Equal values may be shown once. Inconclusive results and toxic doses are left out. Rule for the calls: active = survival T/C of 150% or more; inactive = T/C below 125% in these data.

Tested on: P388 leukemia ip, CD2F1 mice, survival T/C
Experiment: NCI In Vivo Anticancer Drug Screen. Data for tumor model P388 Leukemia (intraperitoneal) in CD2F1 (CDF1) mice
Conditions: endpoint: median survival time, higher = longer survival
Method in brief: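 Mice carrying the transplanted tumor received test compound or vehicle. Survival was recorded in each group, and the value is the treated-group measurement divided by that of the vehicle-treated control group.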

[1] = dose: 50.0 mg/kg/injection, schedule: Q01DX005 (ip), vehicle: saline with Tween-80
[2] = dose: 100.0 mg/kg/injection, schedule: Q01DX005 (ip), vehicle: saline with Tween-80
[3] = dose: 200.0 mg/kg/injection, schedule: Q01DX005 (ip), vehicle: saline with Tween-80
[4] = dose: 50.0 mg/kg/injection, schedule: Q01DX009 (ip), vehicle: saline
[5] = dose: 60.0 mg/kg/injection, schedule: Q01DX005 (ip), vehicle: Klucel (hydroxypropylcellulose) (HPC)
[6] = dose: 120.0 mg/kg/injection, schedule: Q01DX005 (ip), vehicle: Klucel (hydroxypropylcellulose) (HPC)
[7] = dose: 200.0 mg/kg/injection, schedule: Q01DX005 (ip), vehicle: Klucel (hydroxypropylcellulose) (HPC)

Measured: T/C

CCC[CH2][Sn]1([CH2]CCC)[O]C2C(CO)OC(n3ccc(N)nc3=O)C2[O]1 (stereo not given)
inactive: dose: 0.3 mg/kg/injection, schedule: Q03HX015 (ip), vehicle: Klucel (hydroxypropylcellulose) (HPC) 106 % of control | dose: 0.44 mg/kg/injection, schedule: Q03HX015 (ip), vehicle: Klucel (hydroxypropylcellulose) (HPC) 117 % of control | dose: 0.67 mg/kg/injection, schedule: Q03HX015 (ip), vehicle: Klucel (hydroxypropylcellulose) (HPC) 119 % of control and 121 % of control | dose: 0.9 mg/kg/injection, schedule: Q01DX005 (ip), vehicle: Klucel (hydroxypropylcellulose) (HPC) 109 % of control | dose: 1.0 mg/kg/injection, schedule: Q03HX015 (ip), vehicle: Klucel (hydroxypropylcellulose) (HPC) 123 % of control | dose: 1.5 mg/kg/injection, schedule: Q03HX015 (ip), vehicle: Klucel (hydroxypropylcellulose) (HPC) 120 % of control and 124 % of control | dose: 1.56 mg/kg/injection, schedule: Q01DX009 (ip), vehicle: other 102 % of control and 86 % of control | dose: 2.0 mg/kg/injection, schedule: Q01DX005 (ip), vehicle: Klucel (hydroxypropylcellulose) (HPC) 121 % of control | dose: 3.0 mg/kg/injection, schedule: Q01DX005 (ip), vehicle: Klucel (hydroxypropylcellulose) (HPC) 122 % of control | dose: 3.12 mg/kg/injection, schedule: Q01DX009 (ip), vehicle: other 97 % of control

Cc1nn(-c2ccccn2)c2ncnc(N)c12
inactive: [1] 95 % of control | [2] 101 % of control | [3] 95 % of control

CCOC(=O)C1=C(C)N(Cc2ccccc2)C(C)=C(C(=O)OCC)C1(C)C
inactive: dose: 100.0 mg/kg/injection, schedule: Q01DX009 (ip), vehicle: saline with Tween-80 104 % of control | dose: 200.0 mg/kg/injection, schedule: Q01DX009 (ip), vehicle: saline with Tween-80 118 % of control | dose: 400.0 mg/kg/injection, schedule: Q01DX009 (ip), vehicle: saline with Tween-80 118 % of control

COC(OC)C(C)N1CCCCC1 (stereo not given)
inactive: dose: 12.5 mg/kg/injection, schedule: Q01DX009 (ip), vehicle: saline 104 % of control | dose: 25.0 mg/kg/injection, schedule: Q01DX009 (ip), vehicle: saline 97 % of control | [4] 99 % of control and 96 % of control

CC(=O)C[n+]1cccc(S)c1-c1ccccc1
inactive: [1] 97 % of control | [2] 105 % of control | [3] 97 % of control

CCCCCCCOc1ccc(OCCCC[N+]2(CC)CCCCC2)cc1
inactive: dose: 1.56 mg/kg/injection, schedule: Q01DX009 (ip), vehicle: saline 103 % of control | dose: 3.12 mg/kg/injection, schedule: Q01DX009 (ip), vehicle: saline 100 % of control | dose: 6.25 mg/kg/injection, schedule: Q01DX009 (ip), vehicle: saline 102 % of control

COC(=O)c1cc(=O)n(-c2ccccc2C)c(SC)n1
inactive: dose: 100.0 mg/kg/injection, schedule: Q04DX002 (ip), vehicle: Klucel (hydroxypropylcellulose) (HPC) 105 % of control | dose: 200.0 mg/kg/injection, schedule: Q04DX002 (ip), vehicle: Klucel (hydroxypropylcellulose) (HPC) 105 % of control

CCCCCCCC/C=C/CC1CCCC(C)N1 (stereo not given) (tested in a mixture with another compound)
inactive: dose: 7.5 mg/kg/injection, schedule: Q01DX005 (ip), vehicle: saline with Tween-80 100 % of control | dose: 15.0 mg/kg/injection, schedule: Q01DX005 (ip), vehicle: saline with Tween-80 100 % of control | dose: 30.0 mg/kg/injection, schedule: Q01DX005 (ip), vehicle: saline with Tween-80 98 % of control and 102 % of control

C/C=C/C=c1/[nH]c(=O)/c(=C\c2ccccc2)[nH]c1=O
inactive: dose: 50.0 mg/kg/injection, schedule: Q01DX009 (ip), vehicle: Klucel (hydroxypropylcellulose) (HPC) 104 % of control | dose: 100.0 mg/kg/injection, schedule: Q01DX009 (ip), vehicle: Klucel (hydroxypropylcellulose) (HPC) 104 % of control | dose: 200.0 mg/kg/injection, schedule: Q01DX009 (ip), vehicle: Klucel (hydroxypropylcellulose) (HPC) 103 % of control

COc1c2c(c(OC)c3c1C(=O)c1ccccc1C3=O)CC=CC2
inactive: dose: 1.56 mg/kg/injection, schedule: Q01DX009 (ip), vehicle: water 101 % of control | dose: 3.13 mg/kg/injection, schedule: Q01DX009 (ip), vehicle: water 104 % of control | dose: 6.25 mg/kg/injection, schedule: Q01DX009 (ip), vehicle: water 103 % of control | dose: 12.5 mg/kg/injection, schedule: Q01DX009 (ip), vehicle: water 103 % of control | dose: 25.0 mg/kg/injection, schedule: Q01DX009 (ip), vehicle: water 100 % of control

C1CN1Sc1nc(SN2CC2)nc(SN2CC2)n1
inactive: [5] 100 % of control | [6] 97 % of control

CCOC(=O)C(=O)/C=C/[C@H]1[C@H](C)CC=C[C@H]1NC(=O)OCc1ccccc1
inactive: dose: 60.0 mg/kg/injection, schedule: Q01DX005 (ip), vehicle: saline with Tween-80 103 % of control | dose: 120.0 mg/kg/injection, schedule: Q01DX005 (ip), vehicle: saline with Tween-80 99 % of control | dose: 240.0 mg/kg/injection, schedule: Q01DX005 (ip), vehicle: saline with Tween-80 97 % of control

CC1C(O)CCC2=CC(=O)C3(C4(CO)CO4)OC3C21C (stereo not given)
inactive: dose: 15.0 mg/kg/injection, schedule: Q01DX005 (ip), vehicle: saline 102 % of control | dose: 30.0 mg/kg/injection, schedule: Q01DX005 (ip), vehicle: saline 91 % of control | dose: 60.0 mg/kg/injection, schedule: Q01DX005 (ip), vehicle: saline 108 % of control | dose: 62.5 mg/kg/injection, schedule: Q01DX005 (ip), vehicle: saline 103 % of control | dose: 120.0 mg/kg/injection, schedule: Q01DX005 (ip), vehicle: saline 98 % of control | dose: 125.0 mg/kg/injection, schedule: Q01DX005 (ip), vehicle: saline 110 % of control | dose: 250.0 mg/kg/injection, schedule: Q01DX005 (ip), vehicle: saline 114 % of control

COC(=O)CCC1=C(C)c2cc3[nH]c(cc4[nH]c(cc5nc(cc1n2)C(CCC(=O)OC)=C5C)c(C1CC1C(=O)OC)c4C)c(C1CC1C(=O)OC)c3C (stereo not given)
inactive: dose: 50.0 mg/kg/injection, schedule: Q01DX005 (ip), vehicle: Klucel (hydroxypropylcellulose) (HPC) 104 % of control | dose: 100.0 mg/kg/injection, schedule: Q01DX005 (ip), vehicle: Klucel (hydroxypropylcellulose) (HPC) 104 % of control | [7] 109 % of control

CC1=C/C(O)CC(=O)Cc2nc(co2)C(=O)N2CCC=C2C(=O)OC(C(C)C)C(C)/C=C\C(=O)NC/C=C\1 (stereo not given)
inactive: [7] 111 % of control | dose: 400.0 mg/kg/injection, schedule: Q01DX005 (ip), vehicle: Klucel (hydroxypropylcellulose) (HPC) 114 % of control | dose: 1.0 micrograms/kg/injection, schedule: Q01DX009 (ip), vehicle: Klucel (hydroxypropylcellulose) (HPC) 104 % of control and 107 % of control and 115 % of control | dose: 2.0 micrograms/kg/injection, schedule: Q01DX009 (ip), vehicle: Klucel (hydroxypropylcellulose) (HPC) 111 % of control and 114 % of control and 121 % of control | dose: 4.0 micrograms/kg/injection, schedule: Q01DX009 (ip), vehicle: Klucel (hydroxypropylcellulose) (HPC) 111 % of control and 112 % of control and 121 % of control | dose: 8.0 micrograms/kg/injection, schedule: Q01DX009 (ip), vehicle: Klucel (hydroxypropylcellulose) (HPC) 104 % of control and 111 % of control and 123 % of control

Cc1cc(Cl)cc(S(=O)(=O)O)c1N
inactive: dose: 100.0 mg/kg/injection, schedule: Q04DX003 (ip), vehicle: Klucel (hydroxypropylcellulose) (HPC) 95 % of control | dose: 200.0 mg/kg/injection, schedule: Q04DX003 (ip), vehicle: Klucel (hydroxypropylcellulose) (HPC) 97 % of control | dose: 400.0 mg/kg/injection, schedule: Q04DX003 (ip), vehicle: Klucel (hydroxypropylcellulose) (HPC) 97 % of control

C=C(C)[C@H]1C[C@@H](O)[C@H]2O[C@@]2(C)C1
inactive: [4] 91 % of control | dose: 100.0 mg/kg/injection, schedule: Q01DX009 (ip), vehicle: saline 90 % of control | dose: 200.0 mg/kg/injection, schedule: Q01DX009 (ip), vehicle: saline 102 % of control

O=C(O)/C=C/c1c2ccc(=O)cc-2oc2cc(O)ccc12
inactive: [5] 103 % of control | [6] 103 % of control | dose: 240.0 mg/kg/injection, schedule: Q01DX005 (ip), vehicle: Klucel (hydroxypropylcellulose) (HPC) 91 % of control

COC(=O)C1=CC(=O)N2C(=Nc3cccc4cccc2c34)S1
inactive: dose: 6.25 mg/kg/injection, schedule: Q01DX005 (ip), vehicle: saline with Tween-80 91 % of control | dose: 12.5 mg/kg/injection, schedule: Q01DX005 (ip), vehicle: saline with Tween-80 94 % of control | dose: 25.0 mg/kg/injection, schedule: Q01DX005 (ip), vehicle: saline with Tween-80 103 % of control | [2] 99 % of control | [3] 103 % of control

CN(C)CCCC1(c2ccccc2)SC(C)(C)c2ccc(Cl)cc21 (stereo not given)
inactive: dose: 25.0 mg/kg/injection, schedule: Q01DX001 (ip), vehicle: Klucel (hydroxypropylcellulose) (HPC) 102 % of control | dose: 50.0 mg/kg/injection, schedule: Q01DX001 (ip), vehicle: Klucel (hydroxypropylcellulose) (HPC) 100 % of control
